Measurements published in patent US11090410B2 (priority 2011, dated 2021).
“Also recorded” adds a separate entry of the source. Where two headings read alike, the source gives them in different places.

Test system: acetylcholine receptor clustering in C2C12 mouse myoblast cell line
Assay type: cell-based
Conditions: for acetylcholine receptor clustering behavior: C2C12 cells on fibrin hydrogels, 5 days of treatment or beyond

Substance: beads covalently linked to agrin: polystyrene microparticles with agrin linked to the surface using EDAC/sulfo-NHS covalent crosslinking chemistry
- acetylcholine receptor clustering behavior: induction of clustering behavior; also recorded: Clustering behavior was verified at areas of contact
- acetylcholine receptor clustering behavior (listed as agrin-delivering microparticles): formation of AChR clusters
- agrin delivery over longer time periods (e.g., 5 or more days): enabled agrin delivery over longer time periods
